One may read the melting point as the temperature of the solid-liquid transition.

The nature of data set [1]: Cell toxicity (3H-leucine incorporation) in the melanogenesis inhibition test. In kind it is cell-based. The following applies: human, MNT1 human melanoma cells, 24 h incubation. The procedure:
(§1) The inhibition of melanogenesis was measured in MNT1 human melanoma cells using a protocol adapted from Reigner et al, Cell Mol Biol (1999) 45: 969-980. The test was based on the concomitant incorporation of 2 radiolabelled tracers: ^14C-thiouracil is incorporated into neosynthesized melanin and reflects melanogenesis, while ^3H-leucine is incorporated into proteins and reflects cell viability and, as a result, the toxicity of the test compounds.
(§2) The MNT1 cells were plated into 96-well plates in the presence of the test compounds and radioisotopes. After 24 h incubation at 37° C., the cells were washed and the quantity of the 2 radioisotopes was measured. The test compounds were dose-response tested in order to calculate the IC50 inhibition of melanogenesis on the basis of the ^14C incorporation which was normalized by the ^3H incorporation. A cell toxicity IC50 was also calculated on the basis of the ^3H incorporation.

Data set [2] concerns MNT1 human melanoma cells. Kind of data set: Melanogenesis inhibition test (14C-thiouracil incorporation normalized by 3H-leucine). In kind it is cell-based. The following applies: MNT-1, 24 h incubation, 14C incorporation normalized by 3H incorporation. The procedure: as §1, §2
A further data set deals with T1, tyrosinase (Mus musculus, UniProt P11344).
T1 construct: the supernatant obtained constituted the cell lysate used as the source of tyrosinase in the enzymatic test; endogenous in cells; host or cells: B16F1 murine melanoma cells, stimulated with alpha-MSH; detergent lysate supernatant
T1 sequence (P11344 19-533): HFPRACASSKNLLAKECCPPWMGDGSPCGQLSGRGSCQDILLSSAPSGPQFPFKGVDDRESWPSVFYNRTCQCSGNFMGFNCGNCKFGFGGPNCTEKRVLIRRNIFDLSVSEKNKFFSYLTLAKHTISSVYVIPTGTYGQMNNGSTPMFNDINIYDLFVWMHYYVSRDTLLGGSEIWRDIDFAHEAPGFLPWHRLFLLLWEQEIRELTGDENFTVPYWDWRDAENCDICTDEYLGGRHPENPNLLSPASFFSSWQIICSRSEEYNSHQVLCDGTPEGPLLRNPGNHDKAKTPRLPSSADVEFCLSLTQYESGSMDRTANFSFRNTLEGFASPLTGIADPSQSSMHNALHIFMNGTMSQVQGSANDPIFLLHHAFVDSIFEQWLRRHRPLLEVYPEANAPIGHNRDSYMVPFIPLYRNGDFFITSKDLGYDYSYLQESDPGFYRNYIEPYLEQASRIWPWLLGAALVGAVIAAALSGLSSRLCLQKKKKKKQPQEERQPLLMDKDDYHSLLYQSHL
Kind of data set: Tyrosinase activity inhibition test (B16F1 cell lysate, L-tyrosine/MBTH, 520 nm). In kind it is biochemical, murine. The following applies: lysate of B16F1 cells, 6 hours incubation at 37° C.; read-out: Tyrosine hydroxylase/Dopa oxidase IC50. The procedure: The activity of the inhibitors was measured using a lysate of B16F1 cells (murine melanoma line). In the presence of L-tyrosine substrate, the tyrosinase present in these cells catalyses the hydroxylation of L-tyrosine to L-DOPA then oxidation of the L-DOPA to dopaquinone. In the presence of MBTH (3-methyl-2-benzo-thiazolinone hydrazone), dopaquinone is trapped to form a pink complex which absorbs at 520 nm.
The B16F1 cells were cultivated in DMEM medium+10% foetal calf serum+10^−9 M of αMSH for 4 days at 37° C. under 7% CO2. They were treated with trypsin, washed with PBS, counted and centrifuged. The pellet was taken up in an amount of 10^7 cells/mL in lysis buffer (sodium phosphate, 10 mM pH 6.8-Igepal 1%) and the suspension was treated with ultrasound for 10 seconds. After centrifuging for 30 minutes at 4000 rpm, the supernatant obtained constituted the cell lysate used as the source of tyrosinase in the enzymatic test.
The tests were carried out in duplicate in 384-well plates with a total volume of 50 μl. Each well contained: […]
The plate was incubated at 37° C. and a spectrographic recording was produced at 520 nm after 6 hours incubation. In order to compensate for any absorption by the products, a corrected absorbance was used (absorbance at time 6 h−absorbance at time zero). […]

Consider `CCCCc1ccc(O)cc1O` [4-butylresorcinol (Rucinol), 4-butylresorcinol, reference compound], for which the IC50 at 24 h in data set [1] turned out to be 55 µM. Also, the values for the IC50 (in data set [2]; at tyrosinase) were 15 µM and 3000 nM, respectively.

For `O=S(=O)(Cc1ccccc1)N1CCC(c2ccc(O)cc2O)CC1` [Compound 1, 4-(1-phenylmethanesulphonylpiperidin-4-yl)-benzene-1,3-diol], the melting point is 207 to 208 °C. Moreover, in data set [1], the IC50 at 24 h was > 999 µM. This molecule also came in with an IC50 in data set [2] of 0.2 µM.

On to `Cc1ccc(S(=O)(=O)N2CCC(c3ccc(O)cc3O)CC2)cc1` [Compound 2, 4-[1-(toluene-4-sulphonyl)piperidin-4-yl]-benzene-1,3-diol], for which the IC50 on tyrosinase worked out at 1500 nM.
